According to patent publication US9540405B2, “Diaminophenothiazinium derivatives for labelling biomolecules, method and substrate for labelling oligonucleotides, and oligonucleotides obtained” (UNIVERSITE CLAUDE BERNARD LYON I, priority 2012, dated 2017):

Test: Stability study in basic medium (0.05M K2CO3 in methanol)
Assay type: physicochemical

| Compound | Stability after treatment in 0.05M K2CO3/MeOH (4 h) [%] | Stability after treatment in 0.05M K2CO3/MeOH (17 h) [%] |
| --- | --- | --- |
| CCCCN(CCCC)c1ccc2nc3ccc(N(CCO)CCO)cc3[s+]c2c1.[I-] [Ra═Rb═butyl and Rc═Rd═ethanol, (dibutylamino)(diethanolamino)phenothiazinium iodide] | 73 | 25 |
| CCCCN(CCCCO)c1ccc2nc3ccc(N(CCCC)CCCCO)cc3[s+]c2c1.[I-] [Ra═Rc═butyl and Rb═Rd═butanol, bis(butylbutanolamino)phenothiazinium iodide] | 91 | 66 |
